From patent US20120214822A1 (ASTRAZENECA AB, priority 2007, published 2012)

Key:
[1] = GVS (Dynamic Vapour Sorption) water uptake of crystalline forms; type: physicochemical; conditions: ±0.2%; for GVS weight increase: at 80% RH; for water uptake as measured by GVS: between RH of 0%-80%
Protocol: GVS profiles were measured using a Dynamic Vapour Sorption DVS-1 instrument. The solid sample ca. 1-5 mg was placed into a glass vessel and the weight of the sample was recorded during a dual cycle step method (40 to 90 to 0 to 90 to 0% relative humidity (RH), in steps of 10% RH).

[2] = biological target: human active recombinant p38α-6His tagged (Homo sapiens, UniProt Q16539); assay: P38 Alpha Enzyme Assay (AlphaScreen, biotinylated-ATF2 substrate); type: biochemical; conditions: p38 alpha enzyme inhibition; means of replicate determinations; 4 h pre-incubation at 37° C.; SD of assay 0.2-0.3 log units;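 note: 0.5 nM final p38α, reaction started with ATP and run 45 min at 37 °C, phospho-ATF2 read by antibody-based AlphaScreen, background wells quenched with EDTA before ATP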
Sequence of human active recombinant p38α-6His tagged (Q16539 whole entry): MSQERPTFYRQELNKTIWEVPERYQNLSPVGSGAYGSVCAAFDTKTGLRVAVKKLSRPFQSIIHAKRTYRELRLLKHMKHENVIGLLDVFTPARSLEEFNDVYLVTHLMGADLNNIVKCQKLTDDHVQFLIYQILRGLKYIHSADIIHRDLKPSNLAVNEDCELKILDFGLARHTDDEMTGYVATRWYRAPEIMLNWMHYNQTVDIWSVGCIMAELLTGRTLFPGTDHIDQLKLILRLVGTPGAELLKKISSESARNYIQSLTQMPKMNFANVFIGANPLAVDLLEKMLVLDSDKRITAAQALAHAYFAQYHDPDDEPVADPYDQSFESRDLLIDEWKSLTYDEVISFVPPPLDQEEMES

CNCCOc1ccccc1C(C)(C)Nc1nccn(-c2cc(C(=O)NC3CC3)ccc2C)c1=O.Cc1ccc(S(=O)(=O)O)cc1 [N-Cyclopropyl-4-methyl-3-[3-[[1-methyl-1-[2-[2-(methylamino)ethoxy]phenyl]ethyl]amino]-2-oxo-1(2H)-pyrazinyl]-benzamide Tosylate Salt Crystalline Form A]
GVS weight increase [1]: 0.1 % w/w

CNCCOc1ccccc1C(C)(C)Nc1nccn(-c2cc(C(=O)NC3CC3)ccc2C)c1=O [example 163 crystalline form A, N-Cyclopropyl-4-methyl-3-[3-[[1-methyl-1-[2-[2-(methylamino)ethoxy]phenyl]ethyl]amino]-2-oxo-1(2H)-pyrazinyl]-benzamide Crystalline Form A]
GVS weight increase [1]: 5 % w/w

CNCCOc1ccccc1C1(Nc2nccn(-c3cc(C(=O)NC4CC4)ccc3C)c2=O)CC1 [example 167 Crystalline Form A, N-Cyclopropyl-4-methyl-3-[3-[[1-[2-[2-(methylamino)ethoxy]phenyl]cyclopropyl]amino]-2-oxo-1(2H)-pyrazinyl]-benzamide Crystalline Form A]
water uptake as measured by GVS [1]: 1%

Cc1c(F)cc(C(=O)NC2CC2)cc1-n1ccnc(NC2(c3ccccc3OCCNCCO)CC2)c1=O [example 260 crystalline form A, N-Cyclopropyl-3-fluoro-5-[3-[[1-[2-[2-[(2-hydroxyethyl)amino]ethoxy]phenyl]cyclopropyl]amino]-2-oxo-1(2H)-pyrazinyl]-4-methyl-benzamide Crystalline Form A]
water uptake as measured by GVS [1]: 1.2%

CNCCOc1ccccc1C(C)(C)Nc1nccn(-c2cc(C(=O)NC3CC3)ccc2C)c1=O [example 163 crystalline form B, N-Cyclopropyl-4-methyl-3-[3-[[1-methyl-1-[2-[2-(methylamino)ethoxy]phenyl]ethyl]amino]-2-oxo-1(2H)-pyrazinyl]-benzamide Crystalline Form B]
GVS weight increase [1]: 4.3 % w/w

CNCCOc1ccccc1C(C)(C)Nc1nccn(-c2cc(C(=O)NC3CC3)ccc2C)c1=O [example 163 crystalline form C, N-Cyclopropyl-4-methyl-3-[3-[[1-methyl-1-[2-[2-(methylamino)ethoxy]phenyl]ethyl]amino]-2-oxo-1(2H)-pyrazinyl]-benzamide Crystalline Form C]
GVS weight increase [1]: 0.3 % w/w

CNCCOc1ccccc1C1(Nc2nccn(-c3cc(C(=O)NC4CC4)cc(F)c3C)c2=O)CC1 [example 259 crystalline form A, N-Cyclopropyl-3-fluoro-4-methyl-5-[3-[[1-[2-[2-(methylamino)ethoxy]phenyl]cyclopropyl]amino]-2-oxo-1(2H)-pyrazinyl]-benzamide Crystalline Form A]
water uptake as measured by GVS [1]: 0.4%

Cc1ccc(C(=O)NC2CC2)cc1-n1ccnc(NC(C)(C)c2ccccc2OCCN2CCCCC2)c1=O [Example 201, N-Cyclopropyl-4-methyl-3-[3-[[1-methyl-1-[2-[2-(1-piperidinyl)ethoxy]phenyl]ethyl]amino]-2-oxo-1(2H)-pyrazinyl]-benzamide]
pIC50 [2]: 9.1

CCNC[C@H](O)COc1ccccc1C(C)(C)Nc1nccn(-c2cc(C(=O)NC3CC3)cc(F)c2C)c1=O [Example 309, N-Cyclopropyl-3-[3-{[1-(2-{[(2S)-3-(ethylamino)-2-hydroxypropyl]oxy}phenyl)-1-methylethyl]amino}-2-oxopyrazin-1(2H)-yl]-5-fluoro-4-methylbenzamide]
pIC50 [2]: 10.2
